Laboratory results published in ChEMBL document CHEMBL3112450, “Synthesis and in vitro antitumor evaluation of primary amine substituted quinazoline linked benzimidazole” (Bioorg Med Chem Lett, 2014).

Tests used:
[1] = Cytotoxicity against human UACC257 cells assessed as cell growth at 10^-7 M after 48 hrs by SRB assay; format: functional; conditions: UACC-257, 48 h, read-out: Activity
A549 [2] = experiment: Cytotoxicity against human A549 cells after 48 hrs by SRB assay; format: functional; conditions: A549, 48 h
A549 [3] = experiment: Cytotoxicity against human A549 cells assessed as cell growth at 10^-7 M after 48 hrs by SRB assay; format: functional; conditions: A549, 48 h, read-out: Activity
[4] = Cytotoxicity against human UACC257 cells assessed as cell growth at 10^-4 M after 48 hrs by SRB assay; format: functional; conditions: UACC-257, 48 h, read-out: Activity
A549 [5] = experiment: Cytotoxicity against human A549 cells assessed as cell growth at 10^-4 M after 48 hrs by SRB assay; format: functional; conditions: A549, 48 h, read-out: Activity
[6] = Cytotoxicity against human UACC257 cells assessed as cell growth at 10^-8 M after 48 hrs by SRB assay; format: functional; conditions: UACC-257, 48 h, read-out: Activity
A549 [7] = experiment: Cytotoxicity against human A549 cells assessed as cell growth at 10^-8 M after 48 hrs by SRB assay; format: functional; conditions: A549, 48 h, read-out: Activity
BT-549 = experiment: Cytotoxicity against human BT549 cells assessed as growth inhibition at 10 uM after 48 hrs by SRB assay; format: functional; conditions: BT-549, 48 h, read-out: GI
[8] = Cytotoxicity against human NCI-ADR-RES cells assessed as growth inhibition at 10 uM after 48 hrs by SRB assay; format: functional; conditions: read-out: GI
[9] = Cytotoxicity against human OVCAR5 cells assessed as growth inhibition at 10 uM after 48 hrs by SRB assay; format: functional; conditions: OVCAR-5, 48 h, read-out: GI
[10] = Cytotoxicity against human UACC257 cells after 48 hrs by SRB assay; format: functional; conditions: UACC-257, 48 h
NCI-H23 = experiment: Cytotoxicity against human NCI-H23 cells assessed as growth inhibition at 10 uM after 48 hrs by SRB assay; format: functional; conditions: NCI-H23, 48 h, read-out: GI
[11] = Cytotoxicity against human UACC257 cells assessed as cell growth at 10^-6 M after 48 hrs by SRB assay; format: functional; conditions: UACC-257, 48 h, read-out: Activity
A549 [12] = experiment: Cytotoxicity against human A549 cells assessed as cell growth at 10^-6 M after 48 hrs by SRB assay; format: functional; conditions: A549, 48 h, read-out: Activity
SNB-75 [13] = experiment: Cytotoxicity against human SNB75 cells after 48 hrs by SRB assay; format: functional, cell-based; conditions: SNB-75, 48 h
SNB-75 [14] = experiment: Cytotoxicity against human SNB75 cells assessed as cell growth at 10^-4 M after 48 hrs by SRB assay; format: functional; conditions: SNB-75, 48 h, read-out: Activity
SNB-75 [15] = experiment: Cytotoxicity against human SNB75 cells assessed as cell growth at 10^-8 M after 48 hrs by SRB assay; format: functional; conditions: SNB-75, 48 h, read-out: Activity
[16] = Cytotoxicity against human Hs578T cells assessed as growth inhibition at 10 uM after 48 hrs by SRB assay; format: functional; conditions: Hs-578T, read-out: GI
MDA-MB-231 = experiment: Cytotoxicity against human MDA-MB-231 cells assessed as growth inhibition at 10 uM after 48 hrs by SRB assay; format: functional; conditions: MDA-MB-231, 48 h, read-out: GI
MCF7 = experiment: Cytotoxicity against human MCF7 cells assessed as growth inhibition at 10 uM after 48 hrs by SRB assay; format: functional; conditions: MCF7, 48 h, read-out: GI
DU-145 = experiment: Cytotoxicity against human DU145 cells assessed as growth inhibition at 10 uM after 48 hrs by SRB assay; format: functional; conditions: DU-145, 48 h, read-out: GI
PC-3 = experiment: Cytotoxicity against human PC3 cells assessed as growth inhibition at 10 uM after 48 hrs by SRB assay; format: functional; conditions: PC-3, 48 h, read-out: GI
RXF 393 = experiment: Cytotoxicity against human RXF393 cells assessed as growth inhibition at 10 uM after 48 hrs by SRB assay; format: functional; conditions: RXF 393, 48 h, read-out: GI
ACHN = experiment: Cytotoxicity against human ACHN cells assessed as growth inhibition at 10 uM after 48 hrs by SRB assay; format: functional; conditions: read-out: GI
[17] = Cytotoxicity against human OVCAR4 cells assessed as growth inhibition at 10 uM after 48 hrs by SRB assay; format: functional; conditions: OVCAR-4, 48 h, read-out: GI
UACC-62 = experiment: Cytotoxicity against human UACC62 cells assessed as growth inhibition at 10 uM after 48 hrs by SRB assay; format: functional; conditions: UACC-62, 48 h, read-out: GI
SK-MEL-5 = experiment: Cytotoxicity against human SK-MEL-5 cells assessed as growth inhibition at 10 uM after 48 hrs by SRB assay; format: functional; conditions: SK-MEL-5, 48 h, read-out: GI
SK-MEL-28 = experiment: Cytotoxicity against human SK-MEL-28 cells assessed as growth inhibition at 10 uM after 48 hrs by SRB assay; format: functional; conditions: SK-MEL-28, 48 h, read-out: GI
M14 = experiment: Cytotoxicity against human M14 cells assessed as growth inhibition at 10 uM after 48 hrs by SRB assay; format: functional; conditions: M14, 48 h, read-out: GI
LOX IMVI = experiment: Cytotoxicity against human LOXIMVI cells assessed as growth inhibition at 10 uM after 48 hrs by SRB assay; format: functional; conditions: read-out: GI
SW-620 = experiment: Cytotoxicity against human SW620 cells assessed as growth inhibition at 10 uM after 48 hrs by SRB assay; format: functional; conditions: SW-620, 48 h, read-out: GI
KM12 = experiment: Cytotoxicity against human KM12 cells assessed as growth inhibition at 10 uM after 48 hrs by SRB assay; format: functional; conditions: KM12, 48 h, read-out: GI
HT-29 = experiment: Cytotoxicity against human HT-29 cells assessed as growth inhibition at 10 uM after 48 hrs by SRB assay; format: functional; conditions: HT-29, 48 h, read-out: GI
HCT-15 = experiment: Cytotoxicity against human HCT15 cells assessed as growth inhibition at 10 uM after 48 hrs by SRB assay; format: functional; conditions: HCT-15, 48 h, read-out: GI
COLO 205 = experiment: Cytotoxicity against human COLO205 cells assessed as growth inhibition at 10 uM after 48 hrs by SRB assay; format: functional; conditions: COLO 205, 48 h, read-out: GI
NCI-H460 = experiment: Cytotoxicity against human NCI-H460 cells assessed as growth inhibition at 10 uM after 48 hrs by SRB assay; format: functional; conditions: NCI-H460, 48 h, read-out: GI
SR = experiment: Cytotoxicity against human SR cells assessed as growth inhibition at 10 uM after 48 hrs by SRB assay; format: functional; conditions: read-out: GI
HL-60(TB) = experiment: Cytotoxicity against human HL-60(TB) cells assessed as growth inhibition at 10 uM after 48 hrs by SRB assay; format: functional; conditions: HL-60, 48 h, read-out: GI
K562 = experiment: Cytotoxicity against human K562 cells assessed as growth inhibition at 10 uM after 48 hrs by SRB assay; format: functional; conditions: K562, 48 h, read-out: GI
CCRF-CEM = experiment: Cytotoxicity against human CCRF-CEM cells assessed as growth inhibition at 10 uM after 48 hrs by SRB assay; format: functional; conditions: read-out: GI

C=CCn1c(C)nc2ccc(Nc3nc(Nc4ccc5nc(C)n(CC=C)c5c4)c4ccccc4n3)cc21
growth at 0.1 µM [1]: 92%
GI50 (A549 [2]): 1.72 µM
TGI (A549 [2]): 3.22 µM
growth at 0.1 µM (A549 [3]): 101%
growth at 100 µM [4]: -49%
growth at 100 µM (A549 [5]): -14%
growth at 0.01 µM [6]: 90%
growth at 0.01 µM (A549 [7]): 99%
inhibition of growth at 10 µM (BT-549): 30%
inhibition of growth at 10 µM [8]: 40%
inhibition of growth at 10 µM [9]: 70%
GI50 [10]: 1.57 µM
TGI [10]: 3.03 µM
inhibition of growth at 10 µM (NCI-H23): 50%
growth at 1 µM [11]: 84%
growth at 1 µM (A549 [12]): 93%

C=CCn1c(C)nc2cc(Nc3nc(Nc4ccc5nc(C)n(CC=C)c5c4)c4ccccc4n3)ccc21
GI50 (SNB-75 [13]): 0.375 µM
LC50 (concentration killing 50% of cells) (SNB-75 [13]): 5.31 µM
TGI (SNB-75 [13]): 1.56 µM
growth at 100 µM (SNB-75 [14]): -61%
growth at 0.01 µM (SNB-75 [15]): 84%

C=CCn1c(C)nc2ccc(Nc3nc(Nc4ccc(F)cc4)nc4ccccc34)cc21
growth at 0.1 µM [1]: 98%
GI50 (A549 [2]): 4.18 µM
LC50 (A549 [2]): > 100 µM
TGI (A549 [2]): 22.2 µM
growth at 0.1 µM (A549 [3]): 97%
growth at 100 µM [4]: -73%
growth at 100 µM (A549 [5]): -49%
growth at 0.01 µM [6]: 98%
growth at 0.01 µM (A549 [7]): 94%
inhibition of growth at 10 µM (BT-549): 40%
inhibition of growth at 10 µM [16]: 40%
inhibition of growth at 10 µM (MDA-MB-231): 30%
inhibition of growth at 10 µM (MCF7): 70%
inhibition of growth at 10 µM (DU-145): 30%
inhibition of growth at 10 µM (PC-3): 50%
inhibition of growth at 10 µM (RXF 393): 30%
inhibition of growth at 10 µM (ACHN): 30%
inhibition of growth at 10 µM [8]: 50%
inhibition of growth at 10 µM [17]: 50%
inhibition of growth at 10 µM (UACC-62): 30%
inhibition of growth at 10 µM (SK-MEL-5): 50%
inhibition of growth at 10 µM (SK-MEL-28): 30%
inhibition of growth at 10 µM (M14): 50%
inhibition of growth at 10 µM (LOX IMVI): 50%
GI50 (SNB-75 [13]): 1.51 µM
IC50 (SNB-75 [13]): 7.5 µM
TGI (SNB-75 [13]): 3.37 µM
growth at 100 µM (SNB-75 [14]): -57%
growth at 0.01 µM (SNB-75 [15]): 76%
GI50 [10]: 13.1 µM
LC50 (concentration killing 50% of cells) [10]: 68.3 µM
TGI [10]: 29.9 µM
inhibition of growth at 10 µM (SW-620): 50%
inhibition of growth at 10 µM (KM12): 50%
inhibition of growth at 10 µM (HT-29): 70%
inhibition of growth at 10 µM (HCT-15): 50%
inhibition of growth at 10 µM (COLO 205): 50%
inhibition of growth at 10 µM (NCI-H460): 30%
inhibition of growth at 10 µM (NCI-H23): 40%
inhibition of growth at 10 µM (SR): 70%
inhibition of growth at 10 µM (HL-60(TB)): 40%
inhibition of growth at 10 µM (K562): 70%
inhibition of growth at 10 µM (CCRF-CEM): 70%
growth at 1 µM [11]: 92%
growth at 1 µM (A549 [12]): 89%

C=CCn1c(C)nc2cc(Nc3nc(NCCO)nc4ccccc34)ccc21
inhibition of growth at 10 µM (MDA-MB-231): 30%
inhibition of growth at 10 µM (MCF7): 30%
inhibition of growth at 10 µM (PC-3): 30%
inhibition of growth at 10 µM [17]: 30%
inhibition of growth at 10 µM (SK-MEL-5): 30%
inhibition of growth at 10 µM (SW-620): 30%
inhibition of growth at 10 µM (KM12): 30%
inhibition of growth at 10 µM (HT-29): 30%
inhibition of growth at 10 µM (COLO 205): 50%
inhibition of growth at 10 µM (SR): 30%
inhibition of growth at 10 µM (K562): 30%

C=CCn1c(C)nc2ccc(Nc3nc(Sc4ccc(N)cc4)nc4ccccc34)cc21
inhibition of growth at 10 µM (CCRF-CEM): 30%
